Values quoted from earlier work as cited in patent US20220202698A1, “EXTENDED RELEASE PHARMACEUTICAL COMPOSITIONS OF RIOCIGUAT” (Jubilant Pharma Holdings Inc., priority 2020, published 2022).

Tests used:
[1] = human, in vivo
[2] = BCS classification

Elimination half-life [1]: about 12 hours
Solubility [2]: low solubility
SMILES: COC(=O)N(C)c1c(N)nc(-c2nn(Cc3ccccc3F)c3ncccc23)nc1N [Riociguat, methyl 4,6-diamino-2-[1-(2-fluorobenzyl)-1H-pyrazolo[3,4-b]pyridin-3-yl]-5-pyrimidinyl(methyl)carbamate]
